The values below are quoted from earlier work in patent publication US20210095288A1, “METHODS OF MODULATING NKX6.3” (SOCIETE DES PRODUITS NESTLE S.A., priority 2018, published 2021).

This data set has as its system NKX6.3. To be noted: effect on NKX6.3 expression; from Davis A P, et al., Comparative Toxicogenomics Database: update 2017.
In the case of `CCC[CH2][Sn]([CH2]CCC)([CH2]CCC)[O][Sn]([CH2]CCC)([CH2]CCC)[CH2]CCC` [bis(tri-n-butyltin)oxide], the “Interaction Actions” value is “Decreases”. As for `CC(C)(c1ccc(O)cc1)c1ccc(O)cc1` [bisphenol A], the “Interaction Actions” value is “Decreases”. With `COC[C@@H]([C@H](O)[C@H](O)C(=O)NCC[C@H](C)c1nc(/C=C/C[C@@H]2O[C@]3(C[C@@H](O)[C@@H]2C)O[C@H]([C@H](C[C@H](O)[C@H](C)[C@H](O)[C@H](C)/C=C(C)/C(C)=C/C=C/C(C)=C\C#N)OC)[C@H](OP(=O)(O)O)C3(C)C)co1)N(C)C` [calyculin A], the “Interaction Actions” value is given as “Decreases”. Consider `CC(=O)Nc1ccc(O)cc1` [Acetaminophen], for which the “Interaction Actions” value is recorded as “Decreases”. With `CCCc1cc(=O)[nH]c(=S)[nH]1` [Propylthiouracil], the “Interaction Actions” value is recorded as “Decreases”.
